One series deals with HEP3B tumor xenografts. It is filed as in vivo.
The target of a further series is Recombinant FGFR1 (Homo sapiens (Human), UniProt P11362). Description: Kinase HotSpot assay, IC50 profiling of kinase activity inhibition (FGFR1). Conditions: Table 1; 10 μM ATP. It is filed as biochemical.
In another series the target is Recombinant FGFR4 (Homo sapiens (Human), UniProt P22455). Description: Kinase HotSpot assay, IC50 profiling of kinase activity inhibition (FGFR4). It is filed as biochemical. Conditions: Table 1; 10 μM ATP.

Read-outs that look alike come from different tables or passages of the source.

Recombinant FGFR1, sequence (P11362 22-822): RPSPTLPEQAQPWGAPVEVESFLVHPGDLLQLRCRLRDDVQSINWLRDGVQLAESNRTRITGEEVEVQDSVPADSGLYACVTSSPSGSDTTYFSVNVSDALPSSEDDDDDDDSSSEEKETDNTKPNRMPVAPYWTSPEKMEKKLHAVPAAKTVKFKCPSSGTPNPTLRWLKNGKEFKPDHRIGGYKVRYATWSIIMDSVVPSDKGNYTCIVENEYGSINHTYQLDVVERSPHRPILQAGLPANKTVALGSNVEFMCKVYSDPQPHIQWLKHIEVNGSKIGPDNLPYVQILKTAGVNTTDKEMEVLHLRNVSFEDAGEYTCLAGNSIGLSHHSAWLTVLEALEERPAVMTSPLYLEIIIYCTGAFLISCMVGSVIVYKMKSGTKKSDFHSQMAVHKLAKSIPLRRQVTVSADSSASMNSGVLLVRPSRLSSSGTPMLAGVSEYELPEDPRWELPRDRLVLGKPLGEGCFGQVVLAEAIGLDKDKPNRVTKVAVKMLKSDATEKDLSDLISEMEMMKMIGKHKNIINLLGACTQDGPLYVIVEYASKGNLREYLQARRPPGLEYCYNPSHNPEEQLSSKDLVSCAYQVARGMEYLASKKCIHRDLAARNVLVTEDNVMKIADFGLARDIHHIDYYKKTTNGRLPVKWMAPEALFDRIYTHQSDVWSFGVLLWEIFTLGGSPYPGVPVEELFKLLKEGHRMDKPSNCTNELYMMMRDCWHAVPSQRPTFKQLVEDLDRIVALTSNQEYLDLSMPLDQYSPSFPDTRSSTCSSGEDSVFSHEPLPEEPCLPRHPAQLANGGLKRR
Recombinant FGFR4, sequence (P22455 22-802): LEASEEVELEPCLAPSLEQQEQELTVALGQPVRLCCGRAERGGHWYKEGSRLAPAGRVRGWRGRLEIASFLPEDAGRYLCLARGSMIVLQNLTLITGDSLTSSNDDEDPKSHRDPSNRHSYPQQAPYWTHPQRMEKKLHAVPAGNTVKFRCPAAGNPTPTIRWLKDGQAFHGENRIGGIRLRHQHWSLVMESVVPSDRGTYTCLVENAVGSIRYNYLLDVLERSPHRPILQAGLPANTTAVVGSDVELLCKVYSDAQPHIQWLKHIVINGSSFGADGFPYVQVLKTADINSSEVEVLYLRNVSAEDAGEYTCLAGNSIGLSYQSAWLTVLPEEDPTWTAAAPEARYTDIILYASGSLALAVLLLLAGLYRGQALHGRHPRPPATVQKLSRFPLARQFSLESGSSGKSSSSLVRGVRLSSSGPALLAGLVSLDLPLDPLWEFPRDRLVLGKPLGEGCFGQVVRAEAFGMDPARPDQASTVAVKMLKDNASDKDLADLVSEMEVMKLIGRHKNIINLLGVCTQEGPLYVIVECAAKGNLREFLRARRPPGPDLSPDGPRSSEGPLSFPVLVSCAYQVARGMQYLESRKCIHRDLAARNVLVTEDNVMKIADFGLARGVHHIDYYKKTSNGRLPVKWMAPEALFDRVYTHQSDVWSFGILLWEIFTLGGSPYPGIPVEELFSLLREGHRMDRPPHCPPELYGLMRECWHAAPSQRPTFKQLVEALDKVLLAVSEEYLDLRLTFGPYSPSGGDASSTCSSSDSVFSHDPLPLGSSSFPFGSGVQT

As for `CCN1CCN(c2ccc(Nc3cc(N(C)C(=O)Nc4c(Cl)c(OC)cc(OC)c4Cl)ncn3)cc2)CC1` [BGJ398], the “tolerability (health of animals)” value with HEP3B tumor xenografts (30 mg/kg orally twice daily) is “did not exhibit poor health”. Further, in the series with HEP3B tumor xenografts (60 mg/kg orally twice daily), the “comparative in vivo efficacy (tumor volume)” value is reported as “efficacy comparable to compound 108” and the “tolerability (health of animals)” value was “terminated on Day 11 due to poor health of animals”.
Take `C=CC(=O)Nc1ccccc1Nc1cc(N(C)C(=O)Nc2cc(OC)cc(OC)c2)ncn1` [Example 102]: the IC50 is more than 10000 nM on Recombinant FGFR1 and 853 nM at Recombinant FGFR4.
On to `C=CC(=O)Nc1cc(N2CCN(CC)CC2)ccc1Nc1cc(N(C)C(=O)Nc2c(Cl)c(OC)cc(OC)c2Cl)ncn1` [Example 108, N-(2-(6-(3-(2,6-Dichloro-3,5-dimethoxyphenyl)-1-methylureido)pyrimidin-4-ylamino)-5-(4-ethylpiperazin-1-yl)phenyl)acrylamide], for which the “comparative in vivo efficacy (tumor volume)” value with HEP3B tumor xenografts (25, 37.5 or 50 mg/kg i.p. twice daily, 18 days) is recorded as “more efficacious than BGJ398 at tolerable dosage levels”.

The values are drawn from patent US9434697B2, “Pyrimidine FGFR4 inhibitors” (priority 2013, dated 2016).
